From US12649750B2, “Macrocyclic compounds, compositions, and methods of using thereof” (Sionna Therapeutics Inc., priority 2022, dated 2026)

What follows are compounds tested against T1, NBD1 (Homo sapiens, UniProt P13569) (assay: Aggregation analysis using differential static light scattering (DSLS), thermal stability of NBD1 (ΔTagg)). Conditions: ΔTagg versus DMSO control, NBD1 0.2 mg/ml.
T1 construct: Purified recombinant NBD1 was produced using previously described methods; made in house
Format: binding
Procedure, shortened: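 Read-out is ΔTagg: the aggregation temperature, taken at the inflection of the light-scattering curve, less the average of DMSO control wells. Recombinant NBD1 (0.2 mg/ml, pH7.6 buffer containing 2 mM ATP) with test compound was heated at 1° C. per minute up to 70° C.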

T1 sequence (P13569 423-646 limits assumed): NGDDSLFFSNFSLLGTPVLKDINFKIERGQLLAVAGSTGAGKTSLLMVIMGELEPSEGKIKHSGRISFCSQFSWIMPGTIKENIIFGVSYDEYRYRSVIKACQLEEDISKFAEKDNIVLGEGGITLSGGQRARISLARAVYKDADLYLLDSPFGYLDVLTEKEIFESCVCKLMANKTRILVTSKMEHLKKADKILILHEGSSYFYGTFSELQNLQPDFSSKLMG

| Compound | DSLS 3D (100 μM ΔT) |
| --- | --- |
| C[C@@H](Cc1cccc([C@@]2(C)CCCC(C)(C)CS(=O)(=O)CCc3c[nH]c4cc(F)c(cc34)[S+]([O-])c3ccc(F)c(c3)-c3nc2nn3C)c1)C(=O)O (some centres unmarked) [Compound 355] | A (an ΔTagg value less than or equal to 5 °C is marked “A”) |
| C[C@H](Cc1cccc([C@@]2(C)CCCC(C)(C)CS(=O)(=O)CCc3c(ncc4[nH]ccc34)Oc3ccc(F)c(c3)-c3nc2nn3C)c1)C(=O)O [Compound 356, (2R)-3-[3-[(6R)-28-Fluoro-3,6,10,10-tetramethyl-12,12-dioxo-24-oxa-12λ6-thia-3,4,19,22,30-pentazapentacyclo[23.3.1.12,5.015,23.016,20]triaconta-1(29),2(30),4,15,17,20,22,25,27-nonaen-6-yl]phenyl]-2-methyl-propanoic acid] | A (an ΔTagg value less than or equal to 5 °C is marked “A”) |
| C[C@@H](Cc1cccc([C@@]2(C)CCCC(C)(C)CS(=O)(=O)CCc3c(c(F)cc4[nH]ccc34)S(=O)(=O)c3cccc(c3)-c3nc2nn3C)c1)C(=O)O [Compound 357, (2S)-3-[3-[(6R)-22-Fluoro-3,6,10,10-tetramethyl-12,12,24,24-tetraoxo-12λ6,24λ6-dithia-3,4,19,30-tetrazapentacyclo[23.3.1.12,5.015,23.016,20]triaconta-1(29),2(30),4,15,17,20,22,25,27-nonaen-6-yl]phenyl]-2-methyl-propanoic Acid] | B (a value above 5 °C and less than or equal to 10 °C is marked “B”) |
| Cn1nc2nc1-c1cc(ccc1F)S(=O)(=O)c1c(F)c(F)c3[nH]ccc3c1CCS(=O)(=O)CC(C)(C)CCC[C@]2(C)c1cccc(CC(C)(C)C(=O)O)c1 [Compound 358, 2,2-Dimethyl-3-[3-[(6R)-21,22,28-trifluoro-3,6,10,10-tetramethyl-12,12,24,24-tetraoxo-12λ6,24λ6-dithia-3,4,19,30-tetrazapentacyclo[23.3.1.12,5.015,23.016,20]triaconta-1(29),2(30),4,15,17,20,22,25,27-nonaen-6-yl]phenyl]propanoic Acid] | A (an ΔTagg value less than or equal to 5 °C is marked “A”) |
| C[C@@H](Cc1cccc([C@@]2(C)CCCC(C)(C)CS(=O)(=O)CCc3c(c(F)cc4[nH]ncc34)Oc3ccc(F)c(c3)-c3nc2nn3C)c1)C(=O)O [Compound 359, (2S)-3-[3-[(6R)-22,28-Difluoro-3,6,10,10-tetramethyl-12,12-dioxo-24-oxa-12λ6-thia-3,4,18,19,30-pentazapentacyclo[23.3.1.12,5.015,23.016,20]triaconta-1(29),2(30),4,15,17,20,22,25,27-nonaen-6-yl]phenyl]-2-methyl-propanoic Acid] | B (a value above 5 °C and less than or equal to 10 °C is marked “B”) |
| CNC1CS(=O)(=O)CC(C)(C)CCC[C@](C)(c2cccc(C[C@@H](C)C(=O)O)c2)c2nc(n(C)n2)-c2cc(ccc2F)Oc2c(F)c(F)c3[nH]ccc3c21 (stereo partly drawn) [Compound 360D, (2R)-2-Methyl-3-[3-[(6R)-21,22,28-trifluoro-3,6,10,10-tetramethyl-14-(methylamino)-12,12-dioxo-24-oxa-12λ6-thia-3,4,19,30-tetrazapentacyclo[23.3.1.12,5.015,23.016,20]triaconta-1(29),2(30),4,15,17,20,22,25,27-nonaen-6-yl]phenyl]propanoic Acid] | A (an ΔTagg value less than or equal to 5 °C is marked “A”) |
| Cn1nc2nc1-c1cc(ccc1F)Oc1c(F)c(F)c3[nH]cc(CC(=O)O)c3c1CCS(=O)(=O)CC(C)(C)CCC[C@]2(C)c1ccccc1 [Compound 361, 2-[(6R)-21,22,28-Trifluoro-3,6,10,10-tetramethyl-12,12-dioxo-6-phenyl-24-oxa-12λ6-thia-3,4,19,30-tetrazapentacyclo[23.3.1.12,5.015,23.016,20]triaconta-1(29),2(30),4,15,17,20,22,25,27-nonaen-17-yl]acetic Acid] | A (an ΔTagg value less than or equal to 5 °C is marked “A”) |
| Cn1nc2nc1-c1cc(ccn1)Sc1c(F)cc3[nH]cc(CC(=O)O)c3c1CCS(=O)(=O)CC(C)(C)CCC[C@]2(C)c1ccccc1 [Compound 362, 2-[(6R)-22-Fluoro-3,6,10,10-tetramethyl-12,12-dioxo-6-phenyl-12λ6,24-dithia-3,4,19,28,30-pentazapentacyclo[23.3.1.12,5.015,23.016,20]triaconta-1(29),2(30),4,15,17,20,22,25,27-nonaen-17-yl]acetic Acid] | A (an ΔTagg value less than or equal to 5 °C is marked “A”) |
| Cn1nc2nc1-c1cc(ccn1)Oc1c(F)c(F)c3[nH]cc(CC(=O)O)c3c1CCS(=O)(=O)CC(C)(C)CCC[C@]2(C)c1ccccc1 [Compound 363, 2-[(6R)-21,22-Difluoro-3,6,10,10-tetramethyl-12,12-dioxo-6-phenyl-24-oxa-12λ6-thia-3,4,19,28,30-pentazapentacyclo[23.3.1.12,5.015,23.016,20]triaconta-1(29),2(30),4,15,17,20,22,25,27-nonaen-17-yl]acetic acid] | A (an ΔTagg value less than or equal to 5 °C is marked “A”) |
| Cn1nc2nc1-c1cc(ccn1)Cc1c(F)cc3[nH]cc(CC(=O)O)c3c1CCS(=O)(=O)CC(C)(C)CCC[C@]2(C)c1ccccc1 [Compound 364, 2-[(6R)-22-Fluoro-3,6,10,10-tetramethyl-12,12-dioxo-6-phenyl-12λ6-thia-3,4,19,28,30-pentazapentacyclo[23.3.1.12,5.015,23.016,20]triaconta-1(29),2(30),4,15,17,20,22,25,27-nonaen-17-yl]acetic Acid] | A (an ΔTagg value less than or equal to 5 °C is marked “A”) |
| Cn1nc2nc1-c1cc(ccn1)S(=O)(=O)c1c(F)cc3[nH]cc(CC(=O)O)c3c1CCS(=O)(=O)CC(C)(C)CCC[C@]2(C)c1ccccc1 [Compound 366, 2-[(6R)-22-Fluoro-3,6,10,10-tetramethyl-12,12,24,24-tetraoxo-6-phenyl-12λ6,24λ6-dithia-3,4,19,28,30-pentazapentacyclo[23.3.1.12,5.015,23.016,20]triaconta-1(29),2(30),4,15,17,20,22,25,27-nonaen-17-yl]acetic acid] | A (an ΔTagg value less than or equal to 5 °C is marked “A”) |
| COc1c(CCC(=O)O)cccc1C1(C)CCCC(C)(C)CS(=O)(=O)CCc2c(c(F)c(F)c3[nH]ccc23)Oc2ccc(F)c(c2)-c2nc1nn2C (centres unmarked) [Compound 373, 3-[2-Methoxy-3-(21,22,28-trifluoro-3,6,10,10-tetramethyl-12,12-dioxo-24-oxa-12λ6-thia-3,4,19,30-tetrazapentacyclo[23.3.1.12,5.015,23.016,20]triaconta-1(29),2(30),4,15,17,20,22,25,27-nonaen-6-yl)phenyl]propanoic Acid] | B (a value above 5 °C and less than or equal to 10 °C is marked “B”) |
| COC(=O)[C@H](C)Cc1cccc([C@@]2(C)CCCC(C)(C)CS(=O)(=O)CCc3c(c(F)cc4[nH]ccc34)Sc3cc(c(F)cc3O)-c3nc2nn3C)c1 [Compound 376, Methyl (2R)-3-[3-[(6R)-22,28-difluoro-26-hydroxy-3,6,10,10-tetramethyl-12,12-dioxo-12λ6,24-dithia-3,4,19,30-tetrazapentacyclo[23.3.1.12,5.015,23.016,20]triaconta-1(29),2(30),4,15,17,20,22,25,27-nonaen-6-yl]phenyl]-2-methyl-propanoate] | A (an ΔTagg value less than or equal to 5 °C is marked “A”) |
| C[C@H](Cc1cccc([C@@]2(C)CCCC(C)(C)CS(=O)(=O)CCc3c(c(F)cc4[nH]ccc34)Sc3cc(c(F)cc3N)-c3nc2nn3C)c1)C(=O)O [Compound 377, (2R)-3-[3-[(6R)-26-Amino-22,28-difluoro-3,6,10,10-tetramethyl-12,12-dioxo-12λ6,24-dithia-3,4,19,30-tetrazapentacyclo[23.3.1.12,5.015,23.016,20]triaconta-1(29),2(30),4,15,17,20,22,25,27-nonaen-6-yl]phenyl]-2-methyl-propanoic Acid] | B (a value above 5 °C and less than or equal to 10 °C is marked “B”) |
| C[C@H](Cc1cccc([C@@]2(C)CCCC(C)(C)CS(=O)(=O)CCc3c(c(F)cc4[nH]ccc34)Sc3cc(c(F)cc3C(=O)O)-c3nc2nn3C)c1)C(=O)O [Compound 378, (6R)-6-[3-[(2R)-2-Carboxypropyl]phenyl]-22,28-difluoro-3,6,10,10-tetramethyl-12,12-dioxo-12λ6,24-dithia-3,4,19,30-tetrazapentacyclo[23.3.1.12,5.015,23.016,20]triaconta-1(29),2(30),4,15,17,20,22,25,27-nonaene-26-carboxylic Acid] | A (an ΔTagg value less than or equal to 5 °C is marked “A”) |
| C[C@H](Cc1cccc([C@@]2(C)CCCC(C)(C)CS(=O)(=O)CCc3c(c(F)cc4[nH]ccc34)S(=O)(=O)c3cc(c(F)cc3N)-c3nc2nn3C)c1)C(=O)O [Compound 379C, (2R)-3-[3-[(6R)-26-Amino-22,28-difluoro-3,6,10,10-tetramethyl-12,12,24,24-tetraoxo-12λ6,24λ6-dithia-3,4,19,30-tetrazapentacyclo[23.3.1.12,5.015,23.016,20]triaconta-1(29),2(30),4,15,17,20,22,25,27-nonaen-6-yl]phenyl]-2-methyl-propanoic acid] | A (an ΔTagg value less than or equal to 5 °C is marked “A”) |
| C[C@@H](Cc1cccc([C@@]2(C)CCCC(C)(C)CS(=O)(=O)CCc3c(c(F)c(F)c4[nH]ncc34)Oc3ccc(F)c(c3)-c3nc2nn3C)c1)C(=O)O [Compound 382, (2S)-2-Methyl-3-[3-[(6R)-21,22,28-trifluoro-3,6,10,10-tetramethyl-12,12-dioxo-24-oxa-12λ6-thia-3,4,18,19,30-pentazapentacyclo[23.3.1.12,5.015,23.016,20]triaconta-1(29),2(30),4,15,17,20,22,25,27-nonaen-6-yl]phenyl]propanoic Acid] | B (a value above 5 °C and less than or equal to 10 °C is marked “B”) |
